Laboratory results: patent US10562908B2, “Ortho substituted phenylpyrazolo- and phenylpyrrolo-pyridazine derivatives having multimodal activity against pain” (priority 2016, dated 2020)
Read-outs that look alike come from different tables or passages of the source.

Assays:
human μ-opioid receptor = target: T1, human μ-opioid receptor (Homo sapiens, UniProt P35372); assay: Human μ-opioid receptor radioligand assay ([3H]-DAMGO); assay type: binding
T1 construct: expressed in transfected cells; host or cells: CHO-K1
T1 sequence (P35372 whole entry): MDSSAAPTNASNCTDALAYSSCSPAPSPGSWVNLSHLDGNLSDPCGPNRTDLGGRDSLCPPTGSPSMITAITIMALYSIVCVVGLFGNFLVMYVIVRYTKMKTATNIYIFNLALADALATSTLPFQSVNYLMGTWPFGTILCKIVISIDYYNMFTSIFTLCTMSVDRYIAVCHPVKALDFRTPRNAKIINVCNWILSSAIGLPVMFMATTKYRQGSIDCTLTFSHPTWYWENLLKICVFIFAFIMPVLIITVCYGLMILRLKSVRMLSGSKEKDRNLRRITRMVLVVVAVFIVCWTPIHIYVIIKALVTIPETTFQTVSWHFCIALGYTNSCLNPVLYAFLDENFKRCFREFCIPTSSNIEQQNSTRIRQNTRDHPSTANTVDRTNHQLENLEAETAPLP
Procedure, shortened: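 Transfected CHO-K1 membranes (20 μg) incubated with 1 nM [3H]-DAMGO in 50 mM Tris-HCl, 5 mM MgCl2, pH 7.4, 60 min at 27 °C; non-specific binding with 10 μM naloxone. Test compound at five concentrations; bound radioactivity counted after filtration by scintillation.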

[1] = target: Human α2δ-1 subunit of Cav2.2 calcium channel (Homo sapiens, UniProt P54289); assay: Human α2δ-1 subunit of Cav2.2 calcium channel assay ([3H]-Gabapentin); assay type: binding
Sequence of Human α2δ-1 subunit of Cav2.2 calcium channel (P54289 25-1103): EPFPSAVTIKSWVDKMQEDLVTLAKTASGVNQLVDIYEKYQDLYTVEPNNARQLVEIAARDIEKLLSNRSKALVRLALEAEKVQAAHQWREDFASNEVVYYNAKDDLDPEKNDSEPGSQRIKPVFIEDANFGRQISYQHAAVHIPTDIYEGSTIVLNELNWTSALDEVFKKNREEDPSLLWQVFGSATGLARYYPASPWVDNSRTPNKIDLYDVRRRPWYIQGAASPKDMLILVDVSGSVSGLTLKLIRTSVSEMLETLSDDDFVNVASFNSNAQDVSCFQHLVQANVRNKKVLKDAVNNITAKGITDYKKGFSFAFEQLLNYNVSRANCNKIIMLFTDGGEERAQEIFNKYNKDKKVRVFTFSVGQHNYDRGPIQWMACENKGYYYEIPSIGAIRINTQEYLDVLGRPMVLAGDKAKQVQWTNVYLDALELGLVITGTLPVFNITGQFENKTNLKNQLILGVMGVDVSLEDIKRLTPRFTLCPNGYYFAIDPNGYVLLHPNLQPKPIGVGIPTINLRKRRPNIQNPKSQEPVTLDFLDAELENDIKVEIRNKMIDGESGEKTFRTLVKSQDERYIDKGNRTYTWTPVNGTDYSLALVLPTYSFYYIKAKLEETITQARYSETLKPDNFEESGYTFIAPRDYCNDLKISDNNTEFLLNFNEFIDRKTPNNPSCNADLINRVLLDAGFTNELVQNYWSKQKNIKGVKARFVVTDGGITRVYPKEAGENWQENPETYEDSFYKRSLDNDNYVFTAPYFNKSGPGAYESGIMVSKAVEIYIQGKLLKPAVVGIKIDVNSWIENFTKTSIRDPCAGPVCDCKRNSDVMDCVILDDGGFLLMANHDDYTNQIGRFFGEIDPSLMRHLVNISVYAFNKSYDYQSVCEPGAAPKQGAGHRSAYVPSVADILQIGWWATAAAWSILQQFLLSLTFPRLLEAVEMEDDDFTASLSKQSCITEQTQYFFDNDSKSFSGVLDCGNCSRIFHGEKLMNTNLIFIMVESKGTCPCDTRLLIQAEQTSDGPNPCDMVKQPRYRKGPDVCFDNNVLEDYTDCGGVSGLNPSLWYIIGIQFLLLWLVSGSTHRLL
Procedure, shortened: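 α2δ-1-enriched membranes (2.5 μg) were incubated with 15 nM [3H]-gabapentin in 10 mM Hepes-KOH pH 7.4 for 60 min at 27 °C. Non-specific binding was defined with 10 μM pregabalin. Compounds were tested at five concentrations, with filtration and scintillation counting.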

[2] = transfected CHO-K1 cell membranes, 1 nM [3H]-DAMGO, read-out: Binding μ (Ki)
[3] = human α2δ-1 enriched membranes, 15 nM [3H]-Gabapentin, read-out: Binding α2δ-1 (Ki)

SMILES | Ki (human μ-opioid receptor; [2]) | Ki [1, 3] | Ki (human μ-opioid receptor) | Ki [1]
Cc1nnc(N(C)C)c2nn(-c3ccccc3OC(CCNCCF)c3ccccc3)c(C)c12 (centres unmarked) [Example 73, 2-(2-(3-((2-Fluoroethyl)amino)-1-phenylpropoxy)phenyl)-N,N,3,4-tetramethyl-2H-pyrazolo[3,4-d]pyridazin-7-amine] |  |  | < 100 nM | 500 to 5000 nM
CNCCC(Oc1ccccc1-n1c(C)c2c(C)nnc(C)c2c1C)c1ccccc1 (centres unmarked) [Example 65, N-Methyl-3-phenyl-3-(2-(1,4,5,7-tetramethyl-6H-pyrrolo[3,4-d]pyridazin-6-yl)phenoxy)propan-1-amine] |  |  | 100 to 500 nM | 500 to 5000 nM
CNCCC(Oc1ccccc1-n1nc2c(Nc3ccccc3)nnc(C)c2c1C)c1ccccc1 (centres unmarked) [Example 9, 3,4-dimethyl-2-(2-(3-(methylamino)-1-phenylpropoxy)phenyl)-N-phenyl-2H-pyrazolo[3,4-d]pyridazin-7-amine] |  |  | 100 to 500 nM | > 5000 nM
Cc1nnc(N(C)C)c2nn(-c3ccccc3OC(CCNCC3CC3)c3ccccc3)c(C)c12 (centres unmarked) [Example 20, 2-(2-(3-((cyclopropylmethyl)amino)-1-phenylpropoxy)phenyl)-N,N,3,4-tetramethyl-2H-pyrazolo[3,4-d]pyridazin-7-amine] |  |  | 100 to 500 nM | 500 to 5000 nM
Cc1nnc(N(C)C)c2nn(-c3ccccc3OC3CCN(CCc4ccccc4)C3)c(C)c12 (centres unmarked) [Example 55, N,N,3,4-tetramethyl-2-(2-((1-phenethylpyrrolidin-3-yl)oxy)phenyl)-2H-pyrazolo[3,4-d]pyridazin-7-amine] |  |  | 100 to 500 nM | 500 to 5000 nM
CNCC[C@@H](Oc1ccccc1-n1nc2c(N(C)C)nnc(C)c2c1C)c1ccccc1 [Example 100, (R)-N,N,3,4-tetramethyl-2-(2-(3-(methylamino)-1-phenylpropoxy)phenyl)-2H-pyrazolo[3,4-d]pyridazin-7-amine] |  |  | > 500 nM | 500 to 5000 nM
Cc1nnc(N(C)C)c2nn(-c3ccccc3OCCCNCCc3ccccc3)c(C)c12 [Example 31, N,N,3,4-tetramethyl-2-(2-(3-(phenethylamino)propoxy)phenyl)-2H-pyrazolo[3,4-d]pyridazin-7-amine] | > 500 nM | 500 to 5000 nM |  | 
CNCC(Cc1ccccc1)Oc1ccccc1-n1nc2c(N(C)C)nnc(C)c2c1C (centres unmarked) [Example 76, N,N,3,4-Tetramethyl-2-(2-((1-(methylamino)-3-phenylpropan-2-yl)oxy)phenyl)-2H-pyrazolo[3,4-d]pyridazin-7-amine] | > 500 nM | 500 to 5000 nM |  | 
CNCCC(COC)Oc1ccccc1-n1nc2c(N(C)C)nnc(C)c2c1C (centres unmarked) [Example 51, 2-(2-((1-methoxy-4-(methylamino)butan-2-yl)oxy)phenyl)-N,N,3,4-tetramethyl-2H-pyrazolo[3,4-d]pyridazin-7-amine] | > 500 nM | > 5000 nM |  | 
CNCCC(Oc1ccccc1-n1nc2c(N(C)C)nnc(C)c2c1C)c1ccncc1 (centres unmarked) [Example 19, N,N,3,4-tetramethyl-2-(2-(3-(methylamino)-1-(pyridin-4-yl)propoxy)phenyl)-2H-pyrazolo[3,4-d]pyridazin-7-amine] | > 500 nM | 500 to 5000 nM |  | 
CNCC[C@@H](Oc1ccccc1-n1nc2c(N(C)C)nnc(C)c2c1C)c1cccc(F)c1 [Example 104, (R)-2-(2-(1-(3-fluorophenyl)-3-(methylamino)propoxy)phenyl)-N,N,3,4-tetramethyl-2H-pyrazolo[3,4-d]pyridazin-7-amine] |  |  | 100 to 500 nM | 500 to 5000 nM
CNCCC(Oc1cc(C(N)=O)ccc1-n1nc2c(N(C)C)nnc(C)c2c1C)c1ccccc1 (centres unmarked) [Example 94, 4-(7-(dimethylamino)-3,4-dimethyl-2H-pyrazolo[3,4-d]pyridazin-2-yl)-3-(3-(methylamino)-1-phenylpropoxy)benzamide] | > 500 nM | > 5000 nM |  | 
Cc1nnc(N(C)C)c2nn(-c3ccccc3OC(Cc3ccccc3)CN(C)Cc3ccccc3)c(C)c12 (centres unmarked) [Example 74, 2-(2-((1-(Benzyl(methyl)amino)-3-phenylpropan-2-yl)oxy)phenyl)-N,N,3,4-tetramethyl-2H-pyrazolo[3,4-d]pyridazin-7-amine] | > 500 nM | > 5000 nM |  | 
CNCC(Oc1ccccc1-n1nc2c(N(C)C)nnc(C)c2c1C)c1ccccc1 (centres unmarked) [Example 67, N,N,3,4-Tetramethyl-2-(2-(2-(methylamino)-1-phenylethoxy)phenyl)-2H-pyrazolo[3,4-d]pyridazin-7-amine] | > 500 nM | 500 to 5000 nM |  | 
Cc1nnc(N(C)C)c2nn(-c3ccccc3OCCN3CCCC3)c(C)c12 [Example 2, N,N,3,4-tetramethyl-2-(2-(2-(pyrrolidin-1-yl)ethoxy)phenyl)-2H-pyrazolo[3,4-d]pyridazin-7-amine] | > 500 nM | > 5000 nM |  | 
CCOc1cccc(C(CCNC)Oc2ccccc2-n2nc3c(N(C)C)nnc(C)c3c2C)c1 (centres unmarked) [Example 90, 2-(2-(1-(3-ethoxyphenyl)-3-(methylamino)propoxy)phenyl)-N,N,3,4-tetramethyl-2H-pyrazolo[3,4-d]pyridazin-7-amine] | > 500 nM | 500 to 5000 nM |  | 
Cc1nnc(N(C)C)c2nn(-c3ccccc3OC(C)CCNCc3ccccc3)c(C)c12 (centres unmarked) [Example 12, 2-(2-((4-(benzylamino)butan-2-yl)oxy)phenyl)-N,N,3,4-tetramethyl-2H-pyrazolo[3,4-d]pyridazin-7-amine] | > 500 nM | 500 to 5000 nM |  | 
Cc1nnc(N(C)C)c2nn(-c3ccccc3OC(c3ccccc3)C3CCN(C)CC3)c(C)c12 (centres unmarked) [Example 54, N,N,3,4-tetramethyl-2-(2-((1-methylpiperidin-4-yl)(phenyl)methoxy)phenyl)-2H-pyrazolo[3,4-d]pyridazin-7-amine] | > 500 nM | > 5000 nM |  | 
CNCCC(Oc1ccccc1-n1nc2cnnc(C)c2c1C)c1ccccc1 (centres unmarked) [Example 66, 3-(2-(3,4-Dimethyl-2H-pyrazolo[3,4-d]pyridazin-2-yl)phenoxy)-N-methyl-3-phenylpropan-1-amine] | > 500 nM | > 5000 nM |  | 
CNCCC(Oc1ccccc1-n1nc2c(CC#N)nnc(C)c2c1C)c1ccccc1 (centres unmarked) [Example 63, 2-(3,4-Dimethyl-2-(2-(3-(methylamino)-1-phenylpropoxy)phenyl)-2H-pyrazolo[3,4-d]pyridazin-7-yl)acetonitrile] | > 500 nM | > 5000 nM |  | 

Continued, in another order:

Ki (human μ-opioid receptor; [2]) | Ki [1, 3] | SMILES | Ki (human μ-opioid receptor) | Ki [1]
> 500 nM | 500 to 5000 nM | Cc1nnc(N(C)C)c2nn(-c3ccccc3OCC(N)c3ccccc3)c(C)c12 (centres unmarked) [Example 17, 2-(2-(2-amino-2-phenylethoxy)phenyl)-N,N,3,4-tetramethyl-2H-pyrazolo[3,4-d]pyridazin-7-amine] |  | 
> 500 nM | 500 to 5000 nM | CNCCC(Oc1ccccc1-n1nc2c(N(C)C)nnc(C)c2c1C)c1cccc(NC(C)=O)c1 (centres unmarked) [Example 84, N-(3-(1-(2-(7-(dimethylamino)-3,4-dimethyl-2H-pyrazolo[3,4-d]pyridazin-2-yl)phenoxy)-3-(methylamino)propyl)phenyl)acetamide] |  | 
> 500 nM | 500 to 5000 nM | CNCCC(Oc1ccccc1-n1nc2c(NCc3ccccc3)nnc(C)c2c1C)c1ccccc1 (centres unmarked) [Example 7, N-benzyl-3,4-dimethyl-2-(2-(3-(methylamino)-1-phenylpropoxy)phenyl)-2H-pyrazolo[3,4-d]pyridazin-7-amine] |  | 
> 500 nM | > 5000 nM | Cc1nnc(N(C)C)c2nn(-c3ccccc3OC(CCN(C)Cc3ccccc3)Cc3ccccc3)c(C)c12 (centres unmarked) [Example 75, 2-(2-((4-(benzyl(methyl)amino)-1-phenylbutan-2-yl)oxy)phenyl)-N,N,3,4-tetramethyl-2H-pyrazolo[3,4-d]pyridazin-7-amine] |  | 
> 500 nM | 500 to 5000 nM | Cc1nnc(N(C)C)c2nn(-c3ccccc3OC(CCN)c3ccccc3)c(C)c12 (centres unmarked) [Example 38, 2-(2-(3-amino-1-phenylpropoxy)phenyl)-N,N,3,4-tetramethyl-2H-pyrazolo[3,4-d]pyridazin-7-amine] |  | 
> 500 nM | 500 to 5000 nM | Cc1nnc(N(C)C)c2nn(-c3ccccc3O[C@H](c3ccccc3)[C@@H]3CNCCO3)c(C)c12 [Example 49, N,N,3,4-tetramethyl-2-(2-((R)-((S)-morpholin-2-yl)(phenyl)methoxy)phenyl)-2H-pyrazolo[3,4-d]pyridazin-7-amine] |  | 
> 500 nM | 500 to 5000 nM | CNCCC(Oc1ccccc1-n1nc2c(N3CC(OC)C3)nnc(C)c2c1C)c1ccccc1 (centres unmarked) [Example 35, 3-(2-(7-(3-methoxyazetidin-1-yl)-3,4-dimethyl-2H-pyrazolo[3,4-d]pyridazin-2-yl)phenoxy)-N-methyl-3-phenylpropan-1-amine] |  | 
> 500 nM | > 5000 nM | Cc1nnc(N(C)C)c2nn(-c3ccccc3OC3CCN(C)C3)c(C)c12 (centres unmarked) [Example 53, N,N,3,4-tetramethyl-2-(2-((1-methylpyrrolidin-3-yl)oxy)phenyl)-2H-pyrazolo[3,4-d]pyridazin-7-amine] |  | 
> 500 nM | > 5000 nM | Cc1nnc(N(C)C)c2nn(-c3ccccc3OC3CCNCC3)c(C)c12 [Example 13, N,N,3,4-tetramethyl-2-(2-(piperidin-4-yloxy)phenyl)-2H-pyrazolo[3,4-d]pyridazin-7-amine] |  | 
> 500 nM | 500 to 5000 nM | COCC(CCN(C)Cc1ccccc1)Oc1ccccc1-n1nc2c(N(C)C)nnc(C)c2c1C (centres unmarked) [Example 43, 2-(2-((4-(benzyl(methyl)amino)-1-methoxybutan-2-yl)oxy)phenyl)-N,N,3,4-tetramethyl-2H-pyrazolo[3,4-d]pyridazin-7-amine] |  | 
> 500 nM | 500 to 5000 nM | CCOc1ccc(OC(CCNC)c2ccccc2)c(-n2nc3c(N(C)C)nnc(C)c3c2C)c1 (centres unmarked) [Example 89, 2-(5-ethoxy-2-(3-(methylamino)-1-phenylpropoxy)phenyl)-N,N,3,4-tetramethyl-2H-pyrazolo[3,4-d]pyridazin-7-amine] |  | 
